Here are results for nine compounds from publication PMC3460366, “Synthesis and Antibacterial Evaluation of a New Series of N-Alkyl-2-alkynyl/(E)-alkenyl-4-(1H)-quinolones” (Molecules, 2012).

Values joined by “and” are separate entries in the source; they are usually repeats but may differ in a detail not shown here. Equal entries are not always repeated.

The test system of data set [1] is human diploid embryonic lung cell line MRC-5. Kind of data set: XTT cytotoxicity assay on MRC-5 cells. To be noted: XTT. The class given is cell-based. On the procedure:
In order to assess the cytotoxicity of these novel quinolone derivatives, the effect on the viability of a human lung fibroblast cell line MRC-5, was measured using XTT proliferation assay. […] In addition, the position of the triple bond in the side chain seems to have a significant influence on cytotoxcity which is increased in compounds with a triple bond more distant to the quinolone nucleus. This can be concluded by comparing results of 8l, 8n, 8p, and 8r having similar antimycobacterial activity on M. smegmatis but different cytotoxcity depending on triple bond position.
The cytotoxic activity of the synthetic compounds was determined by means of an XTT Cell Proliferation Kit II (Roche Diagnostics, Mannheim, Germany) using the human diploid embryonic lung cell line MRC-5 [11]. The quinolone derivatives were tested at concentrations of 100, 60, 30 and 10 µM in triplicate and the percentage of viable cells at each concentration was determined by comparing with the control.

For data set [2], the system named is M. smegmatis (ATCC 14468). Description: Microtiter broth dilution MIC against M. smegmatis (ATCC 14468). The class given is cell-based. As to conditions: Mycolicibacterium smegmatis, ATCC14468, 72 h, 37 °C, MTT.

For the compound `CCCCCCC#CCCc1cc(=O)c2ccccc2n1C` [Compound 8a, 1-Methyl-2-(3′-decynyl)-4(1H)-quinolone], the “Metabolic active MRC-5 cells (%)” value is listed as 100 ± 1.05% in data set [1] (10 µM), 98.4 ± 1.07% in data set [1] (30 µM), 97.5 ± 0.74% in data set [1] (60 µM) and 89.3 ± 2.94% in data set [1] (100 µM). The MIC in data set [2] is 32 µg/mL and 108 µM.
As for `CCCCCCC#CCCc1cc(=O)c2ccccc2n1CC` [Compound 8b, 1-Ethyl-2-(3'-decynyl)-4(1H)-quinolone], the “Metabolic active MRC-5 cells (%)” value in data set [1] (10 µM) came out at 102 ± 0.85%; in data set [1] (30 µM), 100 ± 0.73%; in data set [1] (60 µM) it was 98.4 ± 0.77%; in data set [1] (100 µM) it was 85.7 ± 1.96%. Further, the MIC in data set [2] was 16 µg/mL and 51.8 µM.
In the case of `CCCCCCC#CCCc1cc(=O)c2ccccc2n1CCC` [Compound 8c, 1-(n-Propyl)-2-(3′-decynyl)-4(1H)-quinolone], the “Metabolic active MRC-5 cells (%)” value in data set [1] (10 µM) turned out to be 103 ± 1.22%; in data set [1] (30 µM), 102 ± 0.42%; in data set [1] (60 µM), 100 ± 0.55%; in data set [1] (100 µM), 100 ± 1.45%. The MIC in data set [2] is 8 µg/mL and 24.8 µM.
As to `CCCCCCCC#CCCc1cc(=O)c2ccccc2n1C` [Compound 8d, 1-Methyl-2-(3'-undecynyl)-4(1H)-quinolone], the “Metabolic active MRC-5 cells (%)” value in data set [1] (10 µM) is 101 ± 1.08%; in data set [1] (30 µM) it was 99.8 ± 0.52%; in data set [1] (60 µM), 98.7 ± 0.8%; in data set [1] (100 µM), 97.3 ± 0.66%. Moreover, the MIC in data set [2] is 8 µg/mL and 25.9 µM.
Take `CCCCCCCC#CCCc1cc(=O)c2ccccc2n1CC` [Compound 8e, 1-Ethyl-2-(3'-undecynyl)-4(1H)-quinolone]: the “Metabolic active MRC-5 cells (%)” value in data set [1] (10 µM) came to 102 ± 1.05%; in data set [1] (30 µM), 101 ± 1.42%; in data set [1] (60 µM) it was 100 ± 0.56%; in data set [1] (100 µM) it was 100 ± 1.05%. Further, the MIC in data set [2] is 8 µg/mL and 24.8 µM.
For `CCCCCCCC#CCCc1cc(=O)c2ccccc2n1CCC` [Compound 8f, 1-(n-Propyl)-2-(3'-undecynyl)-4(1H)-quinolone], the “Metabolic active MRC-5 cells (%)” value in data set [1] (10 µM) is reported as 100 ± 1.05%; in data set [1] (30 µM), 101 ± 1.28%; in data set [1] (60 µM) it was 91.7 ± 2.77%; in data set [1] (100 µM) it was 70.9 ± 8.50%. In data set [2], the MIC was 4 µg/mL and 11.9 µM.
Turning to `CCCCCCCCC#Cc1cc(=O)c2ccccc2n1CCC` [Compound 8h, 1-(n-Propyl)-2-(1'-decynyl)-4(1H)-quinolone], the “Metabolic active MRC-5 cells (%)” value is listed as 103 ± 1.38% in data set [1] (10 µM), 101 ± 2.47% in data set [1] (30 µM), 39.5 ± 3.59% in data set [1] (60 µM) and 14.1 ± 7.83% in data set [1] (100 µM). Further, the MIC in data set [2] was 4 µg/mL and 12.4 µM.
As to `CCCCCCCCC#Cc1cc(=O)c2ccccc2n1CCCC` [Compound 8i, 1-(n-Butyl)-2-(1'-decynyl)-4(1H)-quinolone], the “Metabolic active MRC-5 cells (%)” value was 103 ± 3.13% in data set [1] (10 µM), 101 ± 0.81% in data set [1] (30 µM), 67.2 ± 9.90% in data set [1] (60 µM) and 28.7 ± 8.95% in data set [1] (100 µM). Besides, the MIC in data set [2] was 4 µg/mL and 11.9 µM.
With `CC[C@]1(O)C[C@@H]2CN(CCc3c([nH]c4ccccc34)[C@@](C(=O)OC)(c3cc4c(cc3OC)N(C)[C@H]3[C@@](O)(C(=O)OC)[C@H](OC(C)=O)[C@]5(CC)C=CCN6CC[C@]43[C@@H]65)C2)C1` [Vinblastin, reference compound], the “Metabolic active MRC-5 cells (%)” value in data set [1] (0.12 µM (positive control)) was 51.5 ± 2.36%.
